Read-outs that look alike come from different tables or passages of the source.
Key:
[1] = test system: Normal C57BL/6 female mice; assay: Toxicity assay: complete blood counts in mice treated with 4F-benzoyl-TN14003, ARA-C or both
Protocol: (§1) Lyophilized 4F-benzoyl-TN14003 was manufactured by MSD N.V. The compound was dissolved with water for injection (WFI) at a final stock concentration of 25 mg/ml and stored at −20° C. until use. Before injection to the mice, 4F-benzoyl-TN14003 was thawed and diluted with PBS to final concentration of 5 mg/ml. Actual dosing solutions were prepared by diluting the 5 mg/ml stock solution (total dose including salt) in PBS just before the injection. 4F-benzoyl-TN14003 was administered at a constant dose volume of 200 μL.
(§2) Cytarabine (Cytosine arabinoside; ARA-C) was purchased from Hadassah cytotoxica pharmacy (Israel). ARA-C was provided from Hadassah cytotoxica pharmacy at concentration of 100 mg/ml. Actual dose solution (200 mg/Kg) was prepared by diluting the 100 mg/ml stock solution in PBS.
(§3) Normal C57BL/6 female mice, 9-10 week old, about 20 gram in weight, were used. The animals were kept in groups of a maximum of 10 animals in polysulphone cages (425×266×185 mm), fitted with solid bottoms and filled with wood shavings as bedding material. The animals were provided ad libitum a commercial rodent diet (Harlan Teklad™ Ra/Mouse Diet) and allowed free access to autoclaved water, supplied to each cage via polysulphone bottles with stainless steel sipper-tubes. From the first day of ARA-C dosing wet food was placed at the bottom of the cage. Ten animals were randomly allocated per treatment group.
(§4) The treatments groups were as followed (10 animals per treatment group): • Group A: untreated control. • Group B: animals administered with 4FB-TN14003 at a dose of 2.4, 4.8, 9.6 or 12 mg/Kg daily from day 1 to day 7. • Group C: animals administered with ARA-C at a dose of 200 mg/Kg daily from day 3 to 7. • Group D: animals administered with 4FB-TN14003 as in group B (at a dose of 2.4, 4.8, 9.6 or 12 mg/Kg daily from day 1 to day 7) and also with ARA-C as in group C (at a dose of 200 mg/Kg daily from day 3 to 7).
(§5) 4FB-TN14003 was injected SC at a constant dose volume of 200 μL/mouse (based on the latest determined body weight-average of 20 gr), once daily for 7 consecutive days (days 1-7). Control mice were injected with the vehicle (PBS) only under the same regimen.
(§6) ARA-C was diluted in PBS and injected SC at a constant dose of 200 mg/kg and at constant volume of 200 μL/mouse, once daily for 5 consecutive days (days 3-7). In the combination groups (groups 7-10) ARA-C was injected 4 hours following 4FB-TN14003 injection.
(§7) Blood samples were collected on day 12 of the experiment. The mice in each group were subjected to terminal bleeding from the orbital sinus. Blood samples (ca. 400-500 μl) were dispensed into special serum gel separation tubes (BD Microgard™) centrifuged at 13,000 rpm for 8 minutes at RT and saved the supernatant sera. Sera samples (at least 220 μl) were kept at 2-8° C. to complete blood counts (CBC).

human AML xenografts = details: subcutaneous injections; Beider et al., Exp. Hematol. 2011; cited from earlier work
[2] = test system: Normal C57BL/6 female mice; details: mouse, in vivo
Protocol: as §1, §2, §3, §4, §5, §6, §7

[3] = test system: malignant cells of hematopoietic origin including AML; details: cited from earlier work

Row | hematocrit [2] | hemoglobin (HGB) [2] | lymphocyte Abs [2] | platelets [2] | red blood-cells (RBC) [2] | Compound | levels of platelets ([1]; ARA-C alone versus ARA-C in combination with 4F-benzoyl-TN14003, FIG. 5) | levels of neutrophil Abs ([1]; ARA-C alone versus ARA-C in combination with 4F-benzoyl-TN14003, FIG. 7) | white blood-cells (WBC) ([1]; compared with untreated control, blood collected day 12 (five days after treatment), ARA-C 200 mg/Kg SC days 3-7, 4F-benzoyl-TN14003 2.4, 4.8, 9.6 or 12 mg/Kg SC days 1-7, FIG. 1) | red blood-cells (RBC) ([1]; compared with untreated control, blood collected day 12, FIG. 2) | hematocrit ([1]; compared with untreated control, blood collected day 12, FIG. 3) | hemoglobin (HGB) ([1]; compared with untreated control, blood collected day 12, FIG. 4) | platelets ([1]; compared with untreated control, blood collected day 12, FIG. 5) | lymphocyte Abs ([1]; compared with untreated control, blood collected day 12, FIG. 6) | neutrophil Abs ([1]; compared with untreated control, blood collected day 12, FIG. 7) | growth of human AML xenografts (human AML xenografts) | cytotoxicity toward malignant cells of hematopoietic origin including AML [3]
1 | – | – | – | – | – | Nc1ccn([C@@H]2O[C@H](CO)[C@@H](O)[C@@H]2O)c(=O)n1 [ARA-C, Cytarabine] | equally reduced levels | equally reduced levels | drastic reduction | drastic reduction | drastic reduction | drastic reduction | drastic reduction | drastic reduction | drastic reduction | – | –
2 | did not cause a reduction | did not cause a reduction | did not cause a reduction | did not cause a reduction | did not cause a reduction | 4F-benzoyl-Arg-Arg-Nal-Cys-Tyr-Cit-Lys-DLys-Pro-Tyr-Arg-Cit-Cys-Arg-NH2 [4F-benzoyl-TN14003] | – | – | – | – | – | – | – | – | – | significantly reduced | CXCR4-dependent preferential cytotoxicity

Source: patent US20160082071A1, “METHODS OF TREATING MYELOID LEUKEMIA” (BIOKINE THERAPEUTICS LTD., priority 2013, published 2016)
